These results are taken from patent US12161620B2, “Devices and methods for facilitating and controlling use of a medication” (priority 2013, dated 2024).

For data set [1] the following is noted: cited from earlier work.
The conditions of data set [2]: taste detection; cited from earlier work.
The conditions of data set [3]: in vivo; cited from earlier work.
The conditions of data set [4]: PubChem; cited from earlier work.
Data set [5] in a line: Taste of sucrose octaacetate solution before and after lime treatment (Example 10). The conditions noted are these: 60 ppm in water.
The conditions of data set [6]: cited from earlier work. This is another data set of the same source.
Data set [7] is described as follows: Taste of denatonium saccharide solution before and after activated carbon treatment (Example 11). To be noted: 90 ppm in water. The procedure:
Example 11. In a lab evaluation, 90 ppm denatonium saccharide in water was prepared. To 40 mL samples were added 100 mg and […], respectively, of powdered activated carbon Ecosorb EC-947. The samples were stirred for about 2 days to equilibrate.

The conditions of data set [8]: pungency; cited from earlier work.

Read-outs that look alike come from different tables or passages of the source.

Regarding `CCN(Cc1cccc(S(=O)(=O)O)c1)c1ccc(C(=C2C=CC(=[N+](CC)Cc3cccc(S(=O)(=O)O)c3)C=C2)c2ccccc2S(=O)(=O)[O-])cc1` [Brilliant Blue], the “solubility in water” value in data set [1] is given as “water-soluble”.
The LogP is the decadic logarithm of the partition coefficient of the neutral form, usually between octanol and water. On to `CC(=O)OC[C@H]1O[C@@](COC(C)=O)(O[C@H]2O[C@H](COC(C)=O)[C@@H](OC(C)=O)[C@H](OC(C)=O)[C@H]2OC(C)=O)[C@@H](OC(C)=O)[C@@H]1OC(C)=O` [sucrose octaacetate], for which, in data set [2], the “level at which detectable” value is reported as 10 ppm. Also, the “dose that is not lethal” value in data set [3] is 5000 mg/kg. Moreover, the lipophilicity (LogP) in data set [4] is reported as −0.9. For the same compound, in data set [1], the “solubility in alcohol” value was “very soluble in alcohols” and the water solubility is reported as 900 ppm. The water solubility result in data set [1] (listed as Sucrose octaacetate) is “about 900 ppm”. In addition, the “taste of untreated solution” value in data set [5] is reported as “intensely bitter”.
For orientation: half-life means the time in which the quantity being followed falls by half. For the compound `CC(=O)OCC(COC(C)=O)OC(C)=O` [Triacetin, triacetin], the half-life in data set [6] (pH 9) is less than 24 h. Further, the “pH around which stable” value in data set [6] (stable only around this pH) is approximately 4.
In the case of `CN(C)c1ccc(C(=C2C=CC(=[N+](C)C)C=C2)c2ccc(N(C)C)cc2)cc1.[Cl-]` [Gentian Violet], in data set [1], the “solubility in water” value was “soluble in water”.
In the case of `CC[N+](CC)(CC(=O)Nc1c(C)cccc1C)Cc1ccccc1.O=C1[N-]S(=O)(=O)c2ccccc21` [denatonium saccharide], in data set [7], the “taste of untreated sample” value was “intensely bitter”. Also, the “duration of taste after administration” value in data set [7] (untreated, about 0.1 mL on the tongue) is “at least two hours”.
Take `O=C(/C=C/C=C/c1ccc2c(c1)OCO2)N1CCCCC1` [Piperine, piperine]: the threshold of effect result in data set [8] is “about 1.35 ppm”. Besides, in data set [4], the LogP is 3.5. For the same compound, in data set [1], the “solubility in alcohol” value is on record as “soluble in alcohol” and the water solubility was 40 ppm.
Take `COc1cc(CNC(=O)CCCC/C=C/C(C)C)ccc1O` [Capsaicin, capsaicin]: the threshold of effect result in data set [8] is on record as “about 0.02 ppm”. Besides, in data set [4], the LogP is recorded as 3.6. In addition, in data set [1], the “solubility in alcohol” value is recorded as “soluble in alcohol” and the water solubility was approximately 10 ppm.
For the compound `CC[N+](CC)(CC(=O)Nc1c(C)cccc1C)Cc1ccccc1` [denatonium], the “level at which detectable” value in data set [2] is 0.01 ppm.
